Measured values reported in EP0059645A1, “Method and kit for identification of beta-lactamases” (NATIONAL RESEARCH DEVELOPMENT CORPORATION, priority 1981, dated 1982).
Marks after values point to notes of the source that are not given here.

Tests used:
Experiment in all cases: Competitive assay with nitrocefin (RSAI)
TEM-1 = TEM-1 (Escherichia coli, UniProt P62593); format: biochemical, E. coli 2136E; design: the beta-lactamase has to be extracted from the cells for the purpose of the present invention; made in house; host or cells: E. coli 2136E (plasmid-bearing strain; crude cell extract)
OXA-1 = OXA-1 (Escherichia coli, UniProt P13661); format: biochemical, E. coli 1527E; design: the beta-lactamase has to be extracted from the cells for the purpose of the present invention; made in house; host or cells: E. coli 1527E according to the earlier reading (crude cell extract)
TEM-2 = TEM-2 (Escherichia coli, UniProt P62593, Q37K); format: biochemical, E. coli 1725E
From the text: (§1) It is convenient to express the results in terms of a Relative Substrate Affinity Index (RSAI) value.
(§2) RSAI = Concentration of competing substrate which gives 50% inhibition of ring-opening hydrolysis of the chromogenic substrate
(§3) Concentration of chromogenic substrate in the assay A high RSAI value therefore indicates a low affinity of the beta-lactamase for that competing substrate, and therefore predicts resistance of a beta-lactam competing substrate to hydrolysis by the beta-lactamase. Low RSAI values, in contrast, predict sensitivity to hydrolysis by a beta-lactamase.
(§4) Beta-lactam antibiotics which bind to the TEM-2 enzyme compete with nitrocefin in the assay. […] . This concentration of ampicillin is a direct estimate of the relative affinity of the TEM-2 enzyme for ampicillin. […] . The RSAI value was therefore 1.3.

K1073 = format: biochemical, Klebsiella 1073
From the text: as §1, §2, §3, §4

PSE-4 = PSE-4 (Pseudomonas aeruginosa, UniProt P16897); format: biochemical, Ps.aerug. 1559E; design: Normally, therefore, the beta-lactamase has to be extracted from the cells for the purpose of the present invention; endogenous in cells
HMS-1 = format: biochemical, E. coli 1946
[1] = molecular target: Chromosomal, hyper-induced beta-lactamase enzyme (Escherichia coli, UniProt P00811); format: biochemical, E. coli SNU35; design: Normally, therefore, the beta-lactamase has to be extracted from the cells for the purpose of the present invention; endogenous in cells; host or cells: E. coli SNU 35 (artificially produced strain)
PSE-1 = PSE-1 (Pseudomonas aeruginosa, UniProt Q03170); format: biochemical, Ps.aerug. 1937E; design: Normally, therefore, the beta-lactamase has to be extracted from the cells for the purpose of the present invention; endogenous in cells
OXA-3 = OXA-3 (Pseudomonas aeruginosa, UniProt Q51429); format: biochemical, E. coli R57B; design: Normally, therefore, the beta-lactamase has to be extracted from the cells for the purpose of the present invention; endogenous in cells
PSE-2 = PSE-2 (Pseudomonas aeruginosa, UniProt P14489); format: biochemical, Ps.aerug. 1973E; design: Normally, therefore, the beta-lactamase has to be extracted from the cells for the purpose of the present invention; endogenous in cells
[2] = molecular target: T1, Chromosomal, constitutive beta-lactamase enzyme (Enterobacter cloacae, UniProt P05364); format: biochemical, E. cloacae
T1 construct: Normally, therefore, the beta-lactamase has to be extracted from the cells for the purpose of the present invention; endogenous in cells

SHV-1 = SHV-1 (Escherichia coli, UniProt P0AD63); format: biochemical, E. coli 2008E; design: the beta-lactamase has to be extracted from the cells for the purpose of the present invention; made in house; host or cells: E. coli 2008E (crude cell extract)
OXA-2 = OXA-2 (Escherichia coli, UniProt P0A1V9); format: biochemical, E. coli R46; design: the beta-lactamase has to be extracted from the cells for the purpose of the present invention; made in house; host or cells: E. coli carrying R46 according to the earlier reading (crude cell extract)
K10317 = format: biochemical, K.aerog. 10317
From the text: as §1, §2, §3, §4

[3] = molecular target: T2, Chromosomal, induced beta-lactamase enzyme (Pseudomonas aeruginosa, UniProt P24735); format: biochemical, Ps.aerug. 1937E + ampicillin
T2 construct: Normally, therefore, the beta-lactamase has to be extracted from the cells for the purpose of the present invention; endogenous in cells; host or cells: Pseudomonas aeruginosa 1937E grown with ampicillin

PSE-3 = format: biochemical, Ps.aerug. 1920E
K17 = format: biochemical, Klebsiella 17
From the text: as §1, §2, §3, §4

Structure (SMILES)	RSAI (TEM-1)	RSAI (OXA-1)	RSAI (TEM-2)	RSAI (K1073)	RSAI (PSE-4)	RSAI (HMS-1)	RSAI [1]	RSAI (PSE-1)	RSAI (OXA-3)	RSAI (PSE-2)	RSAI [2]	RSAI (SHV-1)	RSAI (OXA-2)	RSAI (K10317)	RSAI [3]	RSAI (PSE-3)	RSAI (K17)	nature of the binding to the enzyme (PSE-4)	nature of the binding to the enzyme (PSE-1)
CO/N=C(\C(=O)N[C@@H]1C(=O)N2C(C(=O)O)=C(CSc3nc(=O)c(=O)[nH]n3C)CS[C@H]12)c1csc(N)n1 [RO-13 9904]	400	0.9	600	116	42	14	0.01	14	3	0.76	0.0003*	160	10	74	38	36	4	–	–
O=C(O)[C@H]1/C(=C/CO)O[C@@H]2CC(=O)N21 [Clavulanic acid]	0.003*	0.02*	0.002*	0.004*	0.004*	0.006*	4	0.0001	1.6*	0.4	50	0.006*	0.9*	0.004*	>40	0.014	0.004*	irreversibly	reversibly
Cc1nnc(SCC2=C(C(=O)O)N3C(=O)[C@@H](NC(=O)Cn4cnnn4)[C@H]3SC2)s1 [Cephalo-zolin, Cephalozolin]	30	10	48	16	2.6	0.8	46	2	3.4	1.4	17	15	3.4	30	15	3.2	1	–	–
CC1(C)S[C@@H]2[C@H](NC(=O)C(C(=O)O)c3ccccc3)C(=O)N2[C@H]1C(=O)O (some centres unmarked) [Carbeni-cillin, carbenicillin]	0.6	0.5	0.4	0.5	3	0.09	0.00005*	1.4	12	5.5	0.0003*	0.5	15	0.7	0.008	1.35	0.4	–	–
CO/N=C(\C(=O)N[C@@H]1C(=O)N2C(C(=O)O)=C(COC(N)=O)CS[C@H]12)c1ccco1 [Cefuroxime]	50	10	40	12	34	16	0.002	50	0.003	1.7	0.0002	20	3.6	14	0.0001	12	2.3	–	–
CC1(C)S[C@@H]2[C@H](NC(=O)Cc3ccccc3)C(=O)N2[C@H]1C(=O)O [Peni-cillin G, Penicillin G]	3	0.2	1	2	0.48	0.5	0.18	0.6	0.4	0.2	0.08	1	0.6	2.2	0.13	0.3	1.2	–	–
CC1(C)S[C@@H]2[C@H](NC(=O)[C@H](NC(=O)N3CCNC3=O)c3ccccc3)C(=O)N2[C@H]1C(=O)O [Azlo-cillin, Azlocillin]	1	1.4	1.1	1.9	0.36	0.42	0.02	0.23	9	2.64	0.05	1.6	19	3	0.05	0.54	1.1	–	–
CC1=C(C(=O)O)N2C(=O)[C@@H](NC(=O)[C@H](N)C3=CCC=CC3)[C@H]2SC1 [Cephra-dine, cephradine]	35	420	50	25	80	25	0.12	46	100	4.2	1.8	15	86	18	1	3.6	10.4	–	–
O=C(Cc1cccs1)N[C@@H]1C(=O)N2C(C(=O)[O-])=C(C[n+]3ccccc3)CS[C@H]12 [Cephalo-ridine, cephaloridine]	40	60	20	19.2	3.5	6	2*	6	4.4	22	16	30	4	30	–	2.2	5.4	–	–
CC(C)(O/N=C(\C(=O)N[C@@H]1C(=O)N2C(C(=O)[O-])=C(C[n+]3ccccc3)CS[C@H]12)c1csc(N)n1)C(=O)O [Ceftazidime (GR 20,263), Ceftazidime]	>400	>2000	1500	1420	420	10	0.2*	600	>400	>400	0.1*	1140	900	–	0.46*	144	880	–	–
